# In patent US10047105B2, “Gyrase inhibitors” (Merck Sharp & Dohme Corp., priority 2009, dated 2018):
# Key:
# Type in all cases: cell-based
# [1] = tested on: E. coli Δtolc BW25113 Δtolc; assay: microbe, parasite or virus in culture; details: Escherichia coli, BW25113, read-out: Antibacterial Potency MIC
# [2] = tested on: S. pneumoniae ATCC 51916; assay: MIC, S. pneumoniae; details: for MIC: Streptococcus pneumoniae, ATCC51916, S. pneumoniae, read-out: Antibacterial Potency MIC; for MIC Spn52: S. pneumoniae (Spn52), in µg/mL
# [3] = tested on: K. pneumoniae 101; assay: MIC, K. pneumoniae 101; details: Klebsiella pneumoniae, read-out: Antibacterial Potency MIC
# [4] = tested on: H. influenzae ATCC 49247; assay: MIC, H. influenzae; details: Haemophilus influenzae, ATCC49247, read-out: Antibacterial Potency MIC
# [5] = tested on: E. coli ATCC 25922 (EC8 + serum); assay: MIC, E. coli + 20% mouse serum; details: Escherichia coli, ATCC25922; E. coli + serum (20% mouse serum); read-out: Antibacterial Potency MIC
# [6] = tested on: A. baumannii ATCC 19606; assay: MIC, A. baumannii; details: Acinetobacter baumannii, ATCC19606, read-out: Antibacterial Potency MIC
# [7] = tested on: P. aeruginosa ATCC 15692; assay: MIC, P. aeruginosa (wt); details: Pseudomonas aeruginosa, ATCC15692, read-out: Antibacterial Potency MIC
# [8] = tested on: E. coli 8 ATCC 25922; assay: MIC, E. coli 8 (wt); details: for MIC: Escherichia coli, ATCC25922, E. coli (wt), read-out: Antibacterial Potency MIC; for MIC EC8: E. coli 8 (EC8)
# [9] = tested on: S. aureus ATCC 13709 (SA + serum); assay: MIC, S. aureus + 20% mouse serum; details: Staphylococcus aureus, ATCC13709; S. aureus + serum (20% mouse serum); read-out: Antibacterial Potency MIC
# [10] = tested on: S. aureus ATCC 13709; assay: MIC, antibacterial potency, S. aureus; details: for MIC: Staphylococcus aureus, ATCC13709, S. aureus; for MIC, SA: S. aureus (SA), in µg/mL
# [11] = tested on: E. coli imp Benson BAS849; assay: microbe, parasite or virus in culture; details: Escherichia coli, read-out: Antibacterial Potency MIC
# [12] = tested on: K. pneumoniae 11; assay: MIC, K. pneumoniae 11; details: Klebsiella pneumoniae, read-out: Antibacterial Potency MIC
SMILES,MIC Spn52 [2],MIC EC8 [8],"MIC, SA [10]",other results
"CCc1[nH]c2nc(Sc3cnc4ccc[n+]([O-])c4c3)nc(N3CC[C@@H](N)C3)c2c1Cl [701,008]",–,–,–,MIC [1]: ≤ 0.5 mg/L; MIC [2]: 1 mg/L; MIC [3]: ≤ 0.5 mg/L; MIC [4]: 2 mg/L; MIC [5]: 2 mg/L; MIC [6]: 8 mg/L; MIC [7]: 16 mg/L; MIC [8]: 4 mg/L; MIC [9]: ≤ 0.5 mg/L; MIC [10]: ≤ 0.5 mg/L; MIC [11]: 1 mg/L; MIC [12]: 32 mg/L
"CCc1[nH]c2nc(Oc3cnc4cccnc4c3)nc(Oc3cccc(C#N)c3)c2c1Br [701,252]",<=0.5,> 64 mg/L,<=0.5,–
"CCc1[nH]c2nc(Oc3cccc(C#N)c3)nc(Oc3cncnc3)c2c1Br [701,253]",4,> 64 mg/L,1,–
"CCc1[nH]c2nc(Oc3cnc(C)nc3)nc(Oc3cnc(C)nc3)c2c1Br [701,254]",<=0.5,> 64 mg/L,<=0.5,–
"CCc1[nH]c2nc(Oc3cncc(C#N)c3)nc(Oc3cnc(N)nc3)c2c1Br [701,255]",<=0.5,> 64 mg/L,<=0.5,–
"CCc1[nH]c2nc(N3CCN(c4cc(C(=O)O)nc5ccc(Cl)cc45)CC3)ncc2c1Cl [701,260]",64,> 64 mg/L,8,–
"CCc1[nH]c2nc(Oc3cncc(C#N)c3)ncc2c1Cl [701,261]",16,> 64 mg/L,4,–
"CCc1[nH]c2nc(Sc3cnc4ccc[n+]([O-])c4c3)nc(N3CC(NS(C)(=O)=O)C3)c2c1Cl [701,263]",1,> 64 mg/L,<=0.5,–
"CCc1[nH]c2nc(Oc3cncnc3)nc(Oc3cc(O)cc(C#N)c3)c2c1Cl [701,264]",<=0.5,> 64 mg/L,<=0.5,–
"CCc1[nH]c2nc(Oc3cncc(C(N)=O)c3)ncc2c1Cl [701,265]",16,> 64 mg/L,4,–
"CCc1[nH]c2nc(Oc3ccc[n+]([O-])c3)nc(Oc3cccc(C#N)c3)c2c1Br [701,267]",<=0.5,32 mg/L,<=0.5,–
"CCc1[nH]c2nc(Oc3cncc(C#N)c3)nc(Oc3cc(O)cc(C#N)c3)c2c1Br [701,268]",<=0.5,4 mg/L,<=0.5,–
"CCc1[nH]c2nc(Sc3cnc4ccc[n+]([O-])c4c3)nc(N3C[C@@H]4[C@@H](CN)[C@@H]4C3)c2c1Cl [701,269]",<=0.5,8 mg/L,<=0.5,–
"CCc1[nH]c2nc(Sc3cnc4c(c3)c(=O)ncn4C)nc(N3CC4C(N)C4C3)c2c1Cl (stereo not drawn) [701,270]",4,32 mg/L,<=0.5,–
"CCc1[nH]c2nc(Oc3cncnc3)nc(Oc3cc(Cl)cc(N4CC(N)C4)c3)c2c1Br [701,273]",<=0.5,16 mg/L,<=0.5,–
"CCc1[nH]c2nc(Oc3cncc(C(N)=O)c3)nc(N3CC4C(N)C4C3)c2c1Cl (stereo not drawn) [701,278]",>64,> 64 mg/L,>64,–

SMILES,MIC Spn52 [2],MIC EC8 [8],"MIC, SA [10]",other results
"CCc1[nH]c2nc(Oc3ccc4nccnc4c3)nc(Oc3ccc(C#N)cc3Cl)c2c1Cl [701,286]",>64,> 64 mg/L,>64,–
"CCc1[nH]c2nc(Oc3ccc4nccnc4c3)nc(Oc3ccc(C#N)cc3Cl)c2c1Br [701,287]",>64,> 64 mg/L,>64,–
"CCc1[nH]c2nc(Oc3cnc(C)nc3)nc(Oc3cc(C#N)ccc3F)c2c1Br [701,288]",1,> 64 mg/L,<=0.5,–
"CCc1[nH]c2nc(Oc3ccc4nccnc4c3)nc(OC3CCN(C(=O)OC(C)(C)C)CC3)c2c1Cl [701,289]",>64,> 64 mg/L,16,–
"CCc1[nH]c2nc(Oc3ccc4nccnc4c3)nc(OC3CCNCC3)c2c1Cl [701,290]",64,> 64 mg/L,>64,–
"CCc1[nH]c2nc(Oc3cnc(C)nc3)nc(OC3CCNC3)c2c1Cl (stereo not drawn) [701,291]",16,64 mg/L,32,–
"CCc1[nH]c2nc(Sc3cnc4c(c3)c(=O)ncn4C)nc(N3CC4C(N)C4C3)c2c1C (stereo not drawn) [701,292]",>32,> 32 mg/L,32,–
"CCc1[nH]c2nc(Oc3cncnc3)nc(Oc3ccc4ncnc(N5CC(N)C5)c4c3)c2c1Cl [701,296]",32,> 64 mg/L,8,–
"CCc1[nH]c2nc(Oc3cncnc3)nc(Oc3ccc4ncnc(N5CC(N)C5)c4c3)c2c1Br [701,297]",16,> 64 mg/L,4,–
"CCc1[nH]c2nc(Oc3cncc(C#N)c3)nc(Oc3ccc4ncnc(N5CC(N)C5)c4c3)c2c1Br [701,298]",4,> 64 mg/L,2,–
"CCc1[nH]c2nc(Oc3ccc4ncnc(N5CC(N)C5)c4c3)nc(Oc3cncc(C#N)c3)c2c1Br [701,299]",4,> 64 mg/L,2,–
CCc1[nH]c2nc(Sc3cnc4ccc[n+]([O-])c4c3)nc(N3CC[C@@H](N)C3)c2c1Cl [701008-2],1,4 mg/L,<=0.5,–
CCc1[nH]c2nc(Sc3cnc4ccc[n+]([O-])c4c3)nc(N3CC4C(N)C4C3)c2c1Cl (stereo not drawn) [701009-2],<=0.5,2 mg/L,<=0.5,–
CCc1[nH]c2nc(Oc3cncnc3)nc(Oc3cc(O)cc(C#N)c3)c2c1Br [701249-2],<=0.5,4 mg/L,<=0.5,–
CCc1[nH]c2nc(Sc3cnc4ccc[n+]([O-])c4c3)nc(N3CC4C(N)C4C3)c2c1Cl (stereo not drawn) [compound 701009],–,–,–,MIC [1]: ≤ 0.5 mg/L; MIC [2]: ≤ 0.5 mg/L; MIC [3]: ≤ 0.5 mg/L; MIC [4]: 2 mg/L; MIC [5]: 4 mg/L; MIC [6]: 4 mg/L; MIC [7]: 4 mg/L; MIC [8]: 2 mg/L; MIC [9]: ≤ 0.5 mg/L; MIC [10]: ≤ 0.5 mg/L; MIC [11]: ≤ 0.5 mg/L; MIC [12]: 32 mg/L
